Test results reported in patent US20240279241A1, “PYRIDO[4,3-D]PYRIMIDINE COMPOUNDS CAPABLE OF INHIBITING KRAS MUTANT PROTEINS” (Redx Pharma PLC, priority 2021, published 2024).
pIC50: −log10 of the molar value. Where two headings read alike, the source gives them in different places.

Key:
[1] = target: T1, KRAS WT (Homo sapiens, UniProt P01116); assay: HTRF nucleotide exchange assay (NEA), KRAS WT; assay type: biochemical
T1 construct: Recombinant human RAS protein (2 nM); aa1-188 KRAS WT
Description: (§1) The capacity of compounds to bind KRAS G12D, other KRAS mutants and wildtype RAS isoforms was quantified using a HTRF nucleotide exchange assay. Recombinant human RAS protein (2 nM; aa1-188 KRAS WT, HRAS WT, NRAS WT, or KRAS containing the containing the G12D, G13D or Q61H amino acid substitutions, or 4 nM KRAS; aa1-188 containing the G12V, G12C, G12A or G12S amino acid substitution, an N-terminal 6×His-tag and leader sequence), and 2 nM Europium-labeled anti-6×His antibody were mixed in assay buffer (10 mM HEPES pH7.3, 150 mM NaCl, 5 mM MgCl2, 0.05% BSA, 0.0025% NP-40 and 100 mM KF) with various concentrations of compound in a 384-well plate and a volume of 5 uL. After a 60-minute incubation at room temperature, 5 ul of 200 nM EDA-GTP-DY647P1 (diluted in assay buffer) was added to the plate. Following 30-minute incubation at room temperature, time-resolved fluorescence was measured on a PerkinElmer Envision plate reader. DMSO (0.3%) and unlabeled […] (1 μM) or equivalent tool compound were used to generate the Max and Min assay signals, respectively. Data was analysed using a four-parameter logistic model to calculate IC50 values, with at least two independent replicates were performed for each compound.

[2] = target: T2, KRAS G12D (Homo sapiens, UniProt P01116, G12D); assay: HTRF nucleotide exchange assay (NEA), KRAS G12D; assay type: biochemical; settings: recombinant human KRAS G12D aa1-188, 2 nM; lowest class = % inhibition at 10 μM
T2 construct: Recombinant human RAS protein (2 nM)
Description: as §1

T1 sequence (P01116 1-188 isoform P01116-2): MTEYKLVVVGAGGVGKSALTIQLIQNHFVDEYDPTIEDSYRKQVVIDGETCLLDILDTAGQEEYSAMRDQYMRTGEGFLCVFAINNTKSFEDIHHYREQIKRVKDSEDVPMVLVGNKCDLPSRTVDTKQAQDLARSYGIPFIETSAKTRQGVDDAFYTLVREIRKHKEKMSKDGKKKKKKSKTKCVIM
T2 sequence (P01116 1-188 isoform P01116-2 G12D): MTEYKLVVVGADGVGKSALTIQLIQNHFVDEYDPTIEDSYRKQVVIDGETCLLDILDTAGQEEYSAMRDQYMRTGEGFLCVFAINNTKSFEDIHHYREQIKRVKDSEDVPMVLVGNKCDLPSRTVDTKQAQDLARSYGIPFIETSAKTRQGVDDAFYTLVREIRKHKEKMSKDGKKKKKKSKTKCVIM

| SMILES | pIC50 [1] | pIC50 [2] | pIC50 ([1]; recombinant human KRAS WT aa1-188, 2 nM, lowest class = % inhibition at 10 μM) |
| --- | --- | --- | --- |
| C#Cc1c(F)ccc2cc(O)cc(-c3ncc4c(N5CCNC(=O)CC5)nc(OC[C@@]56CCCN5C[C@H](F)C6)nc4c3F)c12 (relative stereo) [Example 87, 1-[7-(8-ethynyl-7-fluoro-3-hydroxy-1-naphthyl)-8-fluoro-2-[[trans-2-fluoro-1,2,3,5,6,7-hexahydropyrrolizin-8-yl]methoxy]pyrido [4,3-d]pyrimidin-4-yl]-1,4-diazepan-5-one] | ≥ 8.00 | ≥ 8.00 | – |
| Nc1nc2c(-c3ncc4c(N5CCCOCC5)nc(OC[C@@]56CCCN5C[C@H](F)C6)nc4c3F)cccc2s1 (relative stereo) [Example 94, 4-[8-fluoro-4-(1,4-oxazepan-4-yl)-2-[[trans-2-fluoro-1,2,3,5,6,7-hexahydropyrrolizin-8-yl]methoxy]pyrido[4,3-d]pyrimidin-7-yl]-1,3-benzothiazol-2-amine] | 5.00 to 7.00 | 5.00 to 7.00 | – |
| COCCNc1nc(OCC23CCCN2CCC3)nc2c(F)c(-c3cc(O)cc4ccccc34)ncc12 [Example 12] | 5.00 to 7.00 | 5.00 to 7.00 | – |
| Oc1cc(-c2ncc3c(NC4CCOCC4)nc(OCC45CCCN4CCC5)nc3c2F)c2ccccc2c1 [Example 15, 4-[8-fluoro-2-(1,2,3,5,6,7-hexahydropyrrolizin-8-ylmethoxy)-4-(tetrahydropyran-4-ylamino)pyrido[4,3-d]pyrimidin-7-yl]naphthalen-2-ol] | 5.00 to 7.00 | 5.00 to 7.00 | – |
| COC1CCN(c2nc(OCC34CCCN3CCC4)nc3c(F)c(-c4cc(O)cc5ccccc45)ncc23)CC1 [Example 21, 4-[8-fluoro-2-(1,2,3,5,6,7-hexahydropyrrolizin-8-ylmethoxy)-4-(4-methoxy-1-piperidyl)pyrido[4,3-d]pyrimidin-7-yl]naphthalen-2-ol] | 5.00 to 7.00 | 5.00 to 7.00 | – |
| CN(c1nc(OCC23CCCN2CCC3)nc2c(F)c(-c3cc(O)cc4ccccc34)ncc12)C1CCOCC1 [Example 23, 4-[8-fluoro-2-(1,2,3,5,6,7-hexahydropyrrolizin-8-ylmethoxy)-4-[methyl(tetrahydro-pyran-4-yl)amino]pyrido[4,3-d]pyrimidin-7-yl]naphthalen-2-ol] | 5.00 to 7.00 | 5.00 to 7.00 | – |
| COCCCNc1nc(OCC23CCCN2CCC3)nc2c(F)c(-c3cc(O)cc4ccccc34)ncc12 [Example 29, 4-[8-fluoro-2-(1,2,3,5,6,7-hexahydropyrrolizin-8-ylmethoxy)-4-(3-methoxypropylamino)pyrido[4,3-d]pyrimidin-7-yl]naphthalen-2-ol] | – | 5.00 to 7.00 | 5.00 to 7.00 |
| CC(C)OCCCNc1nc(OCC23CCCN2CCC3)nc2c(F)c(-c3cc(O)cc4ccccc34)ncc12 [Example 30, 4-[8-fluoro-2-(1,2,3,5,6,7-hexahydropyrrolizin-8-ylmethoxy)-4-(3-isopropoxypropyl-amino)pyrido[4,3-d]pyrimidin-7-yl]naphthalen-2-ol] | 5.00 to 7.00 | 5.00 to 7.00 | – |
| Oc1cc(-c2ncc3c(NC4CCCCC4)nc(OCC45CCCN4CCC5)nc3c2F)c2ccccc2c1 [Example 35, 4-[4-(cyclohexylamino)-8-fluoro-2-(1,2,3,5,6,7-hexahydropyrrolizin-8-ylmethoxy)pyrido [4,3-d]pyrimidin-7-yl]naphthalen-2-ol] | 5.00 to 7.00 | 5.00 to 7.00 | – |
| Oc1cc(-c2ncc3c(N4CC5COCC5C4)nc(OCC45CCCN4CCC5)nc3c2F)c2ccccc2c1 (stereo not shown) [Example 37, 4-[4-(1,3,3a,4,6,6a-hexahydrofuro[3,4-c]pyrrol-5-yl)-8-fluoro-2-(1,2,3,5,6,7-hexahydropyrrolizin-8-ylmethoxy)pyrido [4,3-d]pyrimidin-7-yl]naphthalen-2-ol] | 5.00 to 7.00 | 5.00 to 7.00 | – |
| OCCCNc1nc(OCC23CCCN2CCC3)nc2c(F)c(-c3cc(O)cc4ccccc34)ncc12 [Example 39, 4-[8-fluoro-2-(1,2,3,5,6,7-hexahydropyrrolizin-8-ylmethoxy)-4-(3-hydroxypropylamino)pyrido[4,3-d]pyrimidin-7-yl]naphthalen-2-ol] | 5.00 to 7.00 | 5.00 to 7.00 | – |
